This note sets out measurements from US6531612B2, “Nitrile derivatives that inhibit cathepsin K” (Hoffman-La Roche Inc., priority 1999, dated 2003).

Bounds are passed on as bounds.

Common to all, as to type: biochemical
One assay addresses T1, human liver cathepsin L (Homo sapiens, UniProt P07711).
T1 construct: using human liver cathepsin L (Calbiochem) at a final concentration of 3 nM; purchased Calbiochem; host or cells: human liver (tissue-derived)
Description: cathepsin L inhibitory activity. The settings on record: room temperature, enzyme 3 nM, substrate 5 μM, pH 5.5. Here is the method: (§1) The inhibitory activity of the compounds against cathepsin K, S, L and B was tested at room temperature in 96-wells opaque white polystyrene plates (Costar). The cathepsin K inhibitory activity was tested as follows:
(§2) 5 μl of an inhibitor diluted in 5 mM sodium phosphate, NaCl 15 mM pH 7.4 containing 1% DMSO (final concentrations: 10−0.0001 μM) were preincubated for 10 min with 35 μl of human recombinant cathepsin K (final concentration: 1 nM) diluted in assay buffer (100 mM sodium acetate pH 5.5 containing 5 mM EDTA and 20 mM cysteine). After addition of 10 μl of the fluorogenic substrate Z-Leu-Arg-MCA diluted in assay buffer (final concentration: 5 μM), increase of fluorescence (excitation at 390 nm and emission at 460 nm) was measured for 7.5 min every 45 sec. The initial velocity (RFU/min) was derived from the linear fit of the 11 reading points.
The cathepsin L inhibitory activity was assayed under the same conditions as the cathepsin K inhibitory activity using human liver cathepsin L (Calbiochem) at a final concentration of 3 nM.
(§3) The results are given as IC50 values which denote the concentration of the inhibitor at which the enzymatic activity is inhibited by 50%. The IC50 values are determined from a linear regression curve from a logit-log plot.

Assay [1] deals with T2, human recombinant cathepsin K (Homo sapiens, UniProt P43235).
T2 sequence (P43235 115-329): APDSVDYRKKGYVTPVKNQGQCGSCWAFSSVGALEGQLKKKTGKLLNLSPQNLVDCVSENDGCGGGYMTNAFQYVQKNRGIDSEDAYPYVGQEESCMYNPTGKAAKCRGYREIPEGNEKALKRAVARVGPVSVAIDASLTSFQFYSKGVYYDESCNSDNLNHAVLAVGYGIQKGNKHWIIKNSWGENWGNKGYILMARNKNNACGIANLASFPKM
Description: cathepsin K inhibitory activity (fluorogenic substrate Z-Leu-Arg-MCA). Conditions: room temperature, enzyme 1 nM, substrate 5 μM, pH 5.5. How it is done:
as §1, §2, §3

Assay [2] addresses Human recombinant cathepsin S (Homo sapiens, UniProt P25774). Description: cathepsin S inhibitory activity (fluorogenic substrate Z-Val-Val-Arg-MCA). The settings on record: room temperature, enzyme 0.5 nM, substrate 20 μM, pH 6.5. How it is done:
as §1, §2
Cathepsin S inhibitory activity was assayed analogeously to the cathepsin K inhibitory activity, except that the buffer was 100 mM potassium phosphate, 5 mM EDTA, 5 mM DTT (freshly added), 0.01% Triton X-100, pH 6.5 and the fluorogenic substrate was Z-Val-Val-Arg-MCA (Bachem) (final concentration: 20 μM). Human recombinant cathepsin S (Wiederanders et al., Eur. J. Biochem. 1997, 250, 745-750) was used at a final concentration of 0.5 nM.
as §3

The target in the next assay is T3, human liver cathepsin B (Homo sapiens, UniProt P07858).
T3 construct: using human liver cathepsin B (Calbiochem) at a final concentration of 1 nM; purchased Calbiochem; host or cells: human liver (tissue-derived)
The assay is described as follows: cathepsin B inhibitory activity. Conditions: room temperature, enzyme 1 nM, substrate 5 μM, pH 5.5. Here is the method: as §1, §2
The cathepsin B inhibitory activity was assayed under the same conditions as the cathepsin K inhibitory activity using human liver cathepsin B (Calbiochem) at a final concentration of 1 nM.
as §3

Human recombinant cathepsin S, sequence (P25774 115-331): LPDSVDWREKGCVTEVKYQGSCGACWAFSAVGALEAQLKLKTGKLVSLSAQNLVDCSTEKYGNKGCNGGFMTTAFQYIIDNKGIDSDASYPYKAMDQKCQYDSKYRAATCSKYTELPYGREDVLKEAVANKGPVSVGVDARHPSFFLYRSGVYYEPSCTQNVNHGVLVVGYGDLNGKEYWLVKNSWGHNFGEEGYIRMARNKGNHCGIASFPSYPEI
T1 sequence (P07711 114-333): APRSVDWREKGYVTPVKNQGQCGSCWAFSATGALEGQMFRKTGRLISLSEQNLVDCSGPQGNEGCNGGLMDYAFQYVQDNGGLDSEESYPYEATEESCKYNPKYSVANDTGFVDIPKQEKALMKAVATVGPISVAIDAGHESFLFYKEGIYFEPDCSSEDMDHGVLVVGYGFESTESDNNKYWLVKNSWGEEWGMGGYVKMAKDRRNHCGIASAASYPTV

Broadly, the IC50 is the concentration that gives 50% inhibition. Consider `N#CC(NC(=O)[C@@H]1CCCN1C(=O)OCc1ccccc1)c1ccc2c(c1)OCO2` (mixture of isomers) [10.9, (S)-2-[(R)- and (S)-(Benzo[l,3]dioxol-5-yl-cyano-methyl)-carbamoyl]-pyrrolidine-1-carboxylic acid benzyl ester], for which the half-maximal inhibitory concentration (IC50) against human liver cathepsin L is greater than 10 µM; in assay [1], 0.014 µM; in assay [2] it was greater than 10 µM; on human liver cathepsin B, 9.5 µM.
`COc1ccc(C(C#N)NC(=O)[C@@H]2[C@H](C)CCN2C(=O)OCc2ccccc2)cc1OC` (mixture of isomers) [10.11, (2S,3R)-2-{(R)- and (S)-[Cyano-(3,4-dimethoxy-phenyl)-methyl]-carbamoyl}-3-methyl-pyrrolidine-1-carboxylic acid benzyl ester]: the IC50 against human liver cathepsin L is greater than 10 µM; in assay [1] it was 0.068 µM; in assay [2], greater than 10 µM; at human liver cathepsin B it was 0.6 µM.
Consider `COc1ccc(C(C#N)NC(=O)[C@@H]2CCCN2C(=S)NCc2ccco2)cc1OC` (mixture of isomers) [10.14, (S)-1-[(Furan-2-ylmethyl)-thiocarbamoyl]-pyrrolidine-2-carboxylic acid [(R)- and (S)-cyano-(3,4-dimethoxy-phenyl)-methyl]-amide], for which the IC50 on human liver cathepsin L is greater than 10 µM; in assay [1], 0.064 µM; in assay [2] it was greater than 10 µM; against human liver cathepsin B, 6.2 µM.
On to `Cc1ccccc1C(C#N)NC(=O)[C@@H]1CCCN1C(=O)OCc1ccccc1` (mixture of isomers) [10.20, (S)-2-[(R)- and (S)-(Cyano-o-tolyl-methyl)-carbamoyl]-pyrrolidine-1-carboxylic acid benzyl ester], for which the IC50 on human liver cathepsin L is greater than 10 µM; in assay [1], 0.026 µM; in assay [2], greater than 10 µM; against human liver cathepsin B, greater than 10 µM.
As to `N#CC(NC(=O)[C@@H]1CCCN1C(=O)OCc1ccccc1)c1cccc(Br)c1` (mixture of isomers) [10.22, (S)-2-{(R)- and (S)-[(3-Bromo-phenyl)-cyano-methyl]-carbamoyl}-pyrrolidine-1-carboxylic acid benzyl ester], the IC50 is greater than 10 µM at human liver cathepsin L, 0.016 µM in assay [1], greater than 10 µM in assay [2] and greater than 10 µM on human liver cathepsin B.
`COc1cc(C(C#N)NC(=O)[C@@H]2CCCN2C(=O)OCc2ccccc2)ccc1OCc1ccccc1` (mixture of isomers) [10.28, (S)-2-{(R)- and (S)-[(4-Benzyloxy-3-methoxy-phenyl)-cyano-methyl]-carbamoyl}-pyrrolidine-1-carboxylic acid benzyl ester]: the IC50 at human liver cathepsin L was greater than 10 µM; in assay [1] it was 0.045 µM; in assay [2] it was greater than 10 µM; against human liver cathepsin B, greater than 10 µM.
On to `N#CC(NC(=O)[C@@H]1CCCN1C(=O)CCC1CCCC1)c1ccc2c(c1)OCO2` (mixture of isomers) [10.32, (S)-1-(3-Cyclopentyl-propionyl)-pyrrolidine-2-carboxylic acid ((R)- and (S)-benzo[l,3]dioxol-5-yl-cyano-methyl)-amide], for which the IC50 against human liver cathepsin L was greater than 10 µM; in assay [1], 0.037 µM; in assay [2], greater than 10 µM; against human liver cathepsin B, 0.6 µM.
Turning to `N#CC(NC(=O)[C@@H]1CCCN1C(=O)COCc1ccccc1)c1ccc2c(c1)OCO2` (mixture of isomers) [10.33, (S)-1-Benzyloxyacetyl-pyrrolidine-2-carboxylic acid ((R)- and (S)-benzo[1,3]dioxol-5-yl-cyano-methyl)-amide], the IC50 at human liver cathepsin L is greater than 10 µM; in assay [1] it was 0.027 µM; in assay [2] it was greater than 10 µM; against human liver cathepsin B it was 2 µM.
Regarding `N#C[C@H](NC(=O)[C@@H]1CCCN1C(=O)OCc1ccccc1)c1ccccc1` [10.2, (S)-2-[(R)-(Cyano-phenyl-methyl)-carbamoyl]-pyrrolidine-1-carboxylic acid benzyl ester], the IC50 against human liver cathepsin L is greater than 10 µM; in assay [1] it was 0.046 µM; in assay [2], greater than 10 µM; against human liver cathepsin B, 2.8 µM.
With `N#CC(NC(=O)[C@@H]1CCCN1C(=O)Cc1cccc(Br)c1)c1ccc2c(c1)OCO2` (stereo partly drawn) [11.1, (S)-1-[2-(3-Bromo-phenyl)-ethanoyl]-pyrrolidine-2-carboxylic acid (1-benzo[1,3]dioxol-5-yl-1-cyano-methyl)-amide], the IC50 at human liver cathepsin L is 7 µM; in assay [1], 0.015 µM; in assay [2], greater than 10 µM; at human liver cathepsin B, 2 µM.
With `COc1ccc(C(C#N)NC(=O)[C@@H]2CCCN2C(=O)Cc2cccc(Br)c2)cc1OC` (stereo partly drawn) [11.2, (S)-1-[2-(3-Bromo-phenyl)-ethanoyl]-pyrrolidine-2-carboxylic acid [1-cyano-1-(3,4-dimethoxy-phenyl)-methyl]-amide], the IC50 is greater than 10 µM at human liver cathepsin L, 0.018 µM in assay [1], greater than 10 µM in assay [2] and 0.6 µM against human liver cathepsin B.
As to `N#CC(NC(=O)[C@@H]1CCCN1C(=O)Cc1ccc(Br)cc1)c1ccc2c(c1)OCO2` (stereo partly drawn) [11.10, (S)-1-[2-(4-Bromo-phenyl)-ethanoyl]-pyrrolidine-2-carboxylic acid (1-benzo[1,3]dioxol-5-yl-1-cyano-methyl)-amide], the IC50 against human liver cathepsin L was greater than 10 µM; in assay [1], 0.026 µM; in assay [2] it was greater than 10 µM; against human liver cathepsin B, 4 µM.
